{"source": "patent US8541460B2", "about": "“PDK-1/Akt signaling inhibitors” (The Ohio State University, priority 2003, dated 2013)", "key": {"CCRF-CEM": {"tested_on": "CCRF-CEM", "experiment": "NCI DTP cell line screen (SRB), Leukemia", "format": "cell-based"}, "K-562": {"tested_on": "K-562", "experiment": "NCI DTP cell line screen (SRB), Leukemia", "format": "cell-based", "protocol": "(§1) Screening of compounds 70 and 71 against several cancer cell lines The human tumor cell lines of the cancer screening panel are grown in RPMI 1640 medium containing 5% fetal bovine serum and 2 mM L-glutamine. For a typical screening experiment, cells are inoculated into 96 well microtiter plates in 100 μL at plating densities ranging from 5,000 to 40,000 cells/well depending on the doubling time of individual cell lines. After cell inoculation, the microtiter plates are incubated at 37° C., 5% CO2, 95% air and 100% relative humidity for 24 h prior to addition of experimental drugs.\n(§2) After 24 h, two plates of each cell line are fixed in situ with TCA, to represent a measurement of the cell population for each cell line at the time of drug addition (Tz). Experimental drugs are solubilized in dimethyl sulfoxide at 400-fold the desired final maximum test concentration and stored frozen prior to use. At the time of drug addition, an aliquot of frozen concentrate is thawed and diluted to twice the desired final maximum test concentration with complete medium containing 50 μg/ml gentamicin. Additional four, 10-fold or ½ log serial dilutions are made to provide a total of five drug concentrations plus control. Aliquots of 100 μl of these different drug dilutions are added to the appropriate microtiter wells already containing 100 μl of medium, resulting in the required final drug concentrations.\n(§3) Following drug addition, the plates are incubated for an additional 48 h at 37° C., 5% CO2, 95% air, and 100% relative humidity. For adherent cells, the assay is terminated by the addition of cold TCA. Cells are fixed in situ by the gentle addition of 50 μl of cold 50% (w/v) TCA (final concentration, 10% TCA) and incubated for 60 minutes at 4° C. The supernatant is discarded, and the plates are washed five times with tap water and air dried. Sulforhodamine B (SRB) solution (100 μl) at 0.4% (w/v) in 1% acetic acid is added to each well, and plates are incubated for 10 minutes at room temperature. After staining, unbound dye is removed by washing five times with 1% acetic acid and the plates are air dried. Bound stain is subsequently solubilized with 10 mM trizma base, and the absorbance is read on an automated plate reader at a wavelength of 515 nm. For suspension cells, the methodology is the same except that the assay is terminated by fixing settled cells at the bottom of the wells by gently adding 50 μl of 80% TCA (final concentration, 16% TCA). Using the seven absorbance measurements [time zero, (Tz), control growth, (C), and test growth in the presence of drug at the five concentration levels (Ti)], the percentage growth is calculated at each of the drug concentrations levels. Percentage growth inhibition is calculated as: [(Ti−Tz)/(C−Tz)]×100 for concentrations for which Ti>/=Tz [(Ti−Tz)/Tz]×100 for concentrations for which Ti<Tz\n(§4) Three dose response parameters are calculated for each experimental agent. […] The drug concentration resulting in total growth inhibition (TGI) is calculated from Ti=Tz. […] Values are calculated for each of these three parameters if the level of activity is reached; however, if the effect is not reached or is exceeded, the value for that parameter is expressed as greater or less than the maximum or minimum concentration tested.\n(§5) The methods described were used to test compounds 70 and 71 on a panel of sixty cell lines under a screening service provided by the Developmental Therapeutics Program at the National Institutes of Health. Shown in FIG. 1C are 1, RPMI-8226 leukemia cells; 2; NCI-H322M non-small cell lung cancer cells; 3, HT29 colon cancer cells; 4, U251 CNS cancer cells; 5, SK-MEL-28 melanoma cancer cells; 6, SK-OV-3 ovarian cancer cells; 7, RXF 393 renal cancer cells; 8, PC-3 prostate cancer cells; 9, MDA-MB-231 breast cancer cells."}, "MOLT-4": {"tested_on": "MOLT-4", "experiment": "NCI DTP cell line screen (SRB), Leukemia", "format": "cell-based", "protocol": "as §1, §2, §3, §4, §5"}, "SR": {"tested_on": "SR", "experiment": "NCI DTP cell line screen (SRB), Leukemia", "format": "cell-based", "protocol": "as §1, §2, §3, §4, §5"}, "COLO 205": {"tested_on": "COLO 205", "experiment": "NCI DTP cell line screen (SRB), Colon Cancer", "format": "cell-based, human", "protocol": "as §1, §2, §3, §4, §5"}, "HCT-116": {"tested_on": "HCT-116", "experiment": "NCI DTP cell line screen (SRB), Colon Cancer", "format": "cell-based", "protocol": "as §1, §2, §3, §4, §5"}, "KM12": {"tested_on": "KM12", "experiment": "NCI DTP cell line screen (SRB), Colon Cancer", "format": "cell-based", "protocol": "as §1, §2, §3, §4, §5"}, "SW-620": {"tested_on": "SW-620", "experiment": "NCI DTP cell line screen (SRB), Colon Cancer", "format": "cell-based", "protocol": "as §1, §2, §3, §4, §5"}}, "data": [{"smiles": "NCC(=O)Nc1ccc(-n2nc(C(F)(F)F)cc2-c2ccc3c(ccc4ccccc43)c2)cc1", "note": "[Compound 70, 2-Amino-N-{4-[5-(2-phenanthrenyl)-3-(trifluoromethyl)-1H-pyrazol-1-yl]-phenyl}-acetamide]", "values": [{"measurement": "TGI", "setting": "CCRF-CEM", "result": "2.49E−06"}, {"measurement": "Percent Growth", "setting": "CCRF-CEM; Log10 Concentration −4.0", "result": "−34", "unit": "%"}, {"measurement": "Percent Growth", "setting": "CCRF-CEM; Log10 Concentration −5.0", "result": "−43", "unit": "%"}, {"measurement": "Percent Growth", "setting": "CCRF-CEM; Log10 Concentration −6.0", "result": 28, "unit": "%"}, {"measurement": "Percent Growth", "setting": "CCRF-CEM; Log10 Concentration −7.0", "result": 81, "unit": "%"}, {"measurement": "Percent Growth", "setting": "CCRF-CEM; Log10 Concentration −8.0", "result": 74, "unit": "%"}, {"measurement": "TGI", "setting": "K-562", "result": "3.34E−06"}, {"measurement": "Percent Growth", "setting": "K-562; Log10 Concentration −4.0", "result": "−17", "unit": "%"}, {"measurement": "Percent Growth", "setting": "K-562; Log10 Concentration −5.0", "result": "−30", "unit": "%"}, {"measurement": "Percent Growth", "setting": "K-562; Log10 Concentration −6.0", "result": 33, "unit": "%"}, {"measurement": "Percent Growth", "setting": "K-562; Log10 Concentration −7.0", "result": 62, "unit": "%"}, {"measurement": "Percent Growth", "setting": "K-562; Log10 Concentration −8.0", "result": 97, "unit": "%"}, {"measurement": "TGI", "setting": "MOLT-4", "result": "3.10E−06"}, {"measurement": "Percent Growth", "setting": "MOLT-4; Log10 Concentration −4.0", "result": "−6", "unit": "%"}, {"measurement": "Percent Growth", "setting": "MOLT-4; Log10 Concentration −5.0", "result": "−42", "unit": "%"}, {"measurement": "Percent Growth", "setting": "MOLT-4; Log10 Concentration −6.0", "result": 41, "unit": "%"}, {"measurement": "Percent Growth", "setting": "MOLT-4; Log10 Concentration −7.0", "result": 87, "unit": "%"}, {"measurement": "Percent Growth", "setting": "MOLT-4; Log10 Concentration −8.0", "result": 89, "unit": "%"}, {"measurement": "TGI", "setting": "SR", "result": "4.17E−06"}, {"measurement": "Percent Growth", "setting": "SR; Log10 Concentration −5.0", "result": "−27", "unit": "%"}, {"measurement": "Percent Growth", "setting": "SR; Log10 Concentration −6.0", "result": 45, "unit": "%"}, {"measurement": "Percent Growth", "setting": "SR; Log10 Concentration −7.0", "result": 80, "unit": "%"}, {"measurement": "Percent Growth", "setting": "SR; Log10 Concentration −8.0", "result": 84, "unit": "%"}, {"measurement": "Percent Growth", "setting": "COLO 205; Log10 Concentration −4.0", "result": 1, "unit": "%"}, {"measurement": "Percent Growth", "setting": "COLO 205; Log10 Concentration −5.0", "result": "−53", "unit": "%"}, {"measurement": "Percent Growth", "setting": "COLO 205; Log10 Concentration −6.0", "result": 58, "unit": "%"}, {"measurement": "Percent Growth", "setting": "COLO 205; Log10 Concentration −7.0", "result": 87, "unit": "%"}, {"measurement": "Percent Growth", "setting": "COLO 205; Log10 Concentration −8.0", "result": 89, "unit": "%"}, {"measurement": "Percent Growth", "setting": "HCT-116; Log10 Concentration −4.0", "result": 5, "unit": "%"}, {"measurement": "Percent Growth", "setting": "HCT-116; Log10 Concentration −5.0", "result": "−9", "unit": "%"}, {"measurement": "Percent Growth", "setting": "HCT-116; Log10 Concentration −6.0", "result": 57, "unit": "%"}, {"measurement": "Percent Growth", "setting": "HCT-116; Log10 Concentration −7.0", "result": 93, "unit": "%"}, {"measurement": "Percent Growth", "setting": "HCT-116; Log10 Concentration −8.0", "result": 107, "unit": "%"}, {"measurement": "TGI", "setting": "KM12", "result": "2.67E−06"}, {"measurement": "Percent Growth", "setting": "KM12; Log10 Concentration −4.0", "result": "−51", "unit": "%"}, {"measurement": "Percent Growth", "setting": "KM12; Log10 Concentration −5.0", "result": "−73", "unit": "%"}, {"measurement": "Percent Growth", "setting": "KM12; Log10 Concentration −6.0", "result": 54, "unit": "%"}, {"measurement": "Percent Growth", "setting": "KM12; Log10 Concentration −7.0", "result": 91, "unit": "%"}, {"measurement": "Percent Growth", "setting": "KM12; Log10 Concentration −8.0", "result": 98, "unit": "%"}, {"measurement": "TGI", "setting": "SW-620", "result": "4.23E−06"}, {"measurement": "Percent Growth", "setting": "SW-620; Log10 Concentration −4.0", "result": "−28", "unit": "%"}, {"measurement": "Percent Growth", "setting": "SW-620; Log10 Concentration −5.0", "result": "−32", "unit": "%"}, {"measurement": "Percent Growth", "setting": "SW-620; Log10 Concentration −6.0", "result": 54, "unit": "%"}, {"measurement": "Percent Growth", "setting": "SW-620; Log10 Concentration −7.0", "result": 100, "unit": "%"}, {"measurement": "Percent Growth", "setting": "SW-620; Log10 Concentration −8.0", "result": 100, "unit": "%"}]}]}
